According to patent US9822069B2, “Urea derivative or pharmacologically acceptable salt thereof” (KYORIN PHARMACEUTICAL CO. LTD., priority 2013, dated 2017):

biological target: T1, human FPRL1 (Homo sapiens, UniProt P25090); assay: Measurement test of agonist activity on human FPRL1 (test of calcium mobilization in cell, HEK293 with human FPRL1 and Gα15 expression vectors); format: cell-based; settings: calcium mobilization in HEK293 cells with human FPRL1 and Gα15 expression vectors
T1 construct: expressed in transfected cells; host or cells: HEK293 (JCRB9068, NIBIO), transient transfection with pCMV-script vectors using Lipofectamine 2000
T1 sequence (P25090 1-351): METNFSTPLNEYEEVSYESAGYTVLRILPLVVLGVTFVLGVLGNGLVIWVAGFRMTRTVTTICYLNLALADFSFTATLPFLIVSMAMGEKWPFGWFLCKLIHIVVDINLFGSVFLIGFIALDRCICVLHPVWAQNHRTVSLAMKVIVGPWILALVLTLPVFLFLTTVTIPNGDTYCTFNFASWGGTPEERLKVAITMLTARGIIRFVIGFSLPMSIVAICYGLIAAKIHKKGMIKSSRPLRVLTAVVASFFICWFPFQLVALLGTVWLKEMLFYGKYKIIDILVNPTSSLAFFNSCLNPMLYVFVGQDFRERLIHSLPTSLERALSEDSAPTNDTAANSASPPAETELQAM
From the text: Measurement Test of Agonist Activity on Human FPRL1
(1-1) Construction of Human FPRL1 Expression Vector
Human FPRL (SEQ ID NO: 3) was amplified in a PCR reaction from cDNA derived from a monocytic leukemia cell line THP-1 (TIB-202, ATCC) as a template using a forward primer shown in SEQ ID NO: 1, a reverse primer shown in SEQ ID NO: 2, and KOD-plus-ver. 2 (KOD-211, TOYOBO CO., LTD.). The amplified PCR product and pCMV-script vector (212220, STRATAGENE) were digested with Hind III (1060A, Takara Bio Inc.) and XhoI (1094A, Takara Bio Inc.), and the resultant digest was ligated with Ligation high ver. 2 (LGK-201, TOYOBO CO., LTD.). The ligation product was transformed into DH5α (DNA-901, TOYOBO CO., LTD.), cultured on a 100 μg/mL kanamycin-containing LB medium, and purified with HiSpeed Plasmid Maxi Kit (12662, QIAGEN).
(1-2) Construction of Human Gα15 Expression Vector
Human Gα15 (SEQ ID NO: 6) was amplified in a PCR reaction from cDNA derived from a myeloid leukemia cell line HL-60 (CCL-240, ATCC) as a template using a forward primer shown in SEQ ID NO: 4, a reverse primer shown in SEQ ID NO: 5, and KOD-plus-ver. 2. The amplified PCR product and pCMV-script vector were digested with Hind III and XhoI, and the resultant digest was ligated with Ligation high ver. 2. The ligation product was transformed into DH5α, cultured on a 100 μg/mL kanamycin-containing LB medium, and purified with HiSpeed Plasmid Maxi Kit.
(2-1) Method for Culturing and Subculturing HEK293
HEK293 (JCRB9068, NIBIO) was cultured in an incubator at 5% CO2 and 37° C. using DMEM (11885-092, GIBCO) containing 10% FBS and 1× Penicillin-Streptomycin (15140-122, GIBCO). Subculture was carried out as followings: The cells that reached 80 to 90% confluency were washed with PBS(−), separated using 0.25% Trypsin-EDTA (25200-072, GIBCO), centrifuged, re-suspended in a fresh medium, and then seeded in Collagen Type 1 Coated dish (4020-010, IWAKI) at a split ratio of 1:8 (cultured for 3 days).
(2-2) Introduction of Human FPRL1 and Gα15 Expression Vectors
HEK293 that reached 80 to 90% confluency was washed with PBS(−), separated using 0.25% Trypsin-EDTA, centrifuged, and re-suspended in a fresh medium excluding 1× Penicillin-Streptomycin. The cells were inoculated in a Collagen Type 1 coated 6-well plate (4810-010, IWAKI) to 5×10^5 cells/2.5 mL/well and cultured overnight. On the next day, human FPRL1 and Gα15 expression vectors were introduced using Lipofectamine 2000 transfection reagent (11668-019, Life technologies). First, the human FPRL1 and Gα15 expression vectors were diluted with Opti-MEM I Reduced Serum Medium (31985-070, GIBCO) to 2 μg/250 μL/well and Lipofectamine 2000 transfection reagent was diluted with Opti-MEM I Reduced Serum Medium to be 4 μL/250 μL/well. The vectors and reagent were softly diffused, and incubated at room temperature for 5 minutes. The vector solution was mixed with Lipofectamine 2000 transfection reagent in equal amounts. In order to form a composite of the vectors and Lipofectamine 2000 transfection reagent, the mixture was incubated at room temperature for 20 minutes, and added at 500 μL/well to the medium of inoculated cells. The treated cells were cultured for 24 hours, inoculated in Poly-D-Lysine coated 96-well plate (356640, BD Biosciences) at a cell density of 7×10^4 cells/100 μL/well, and cultured for another 24 hours. The resultant cells were used in a measurement test of calcium mobilization in the cells.
(3) Evaluation of Agonist Activity on Human FPRL1 (Test of Calcium Mobilization in Cell)
An appropriate amount of each test compound was first weighed, and dissolved to 10^−2 M by addition of dimethyl sulfoxide (DMSO). […]

SMILES | EC50 [nM]
COc1cc(F)c([C@@H]2CNC(=O)[C@H]2NC(=O)Nc2cccc(F)c2)c(F)c1 (relative stereo) [Example 7-8, (−)-1-[(3S*,4R*)-4-(2,6-difluoro-4-methoxyphenyl)-2-oxopyrrolidin-3-yl]-3-(3-fluorophenyl)urea] | 0.95
CCc1ccc(NC(=O)N[C@@H]2C(=O)NC[C@H]2c2c(F)cc(OC)cc2F)cc1 (relative stereo) [Example 7-10, (−)-1-[(3S*,4R*)-4-(2,6-difluoro-4-methoxyphenyl)-2-oxopyrrolidin-3-yl]-3-(4-ethylphenyl)urea] | 2.31
COc1cc(F)c([C@@H]2CNC(=O)[C@H]2NC(=O)Nc2cccc(C#N)c2)c(F)c1 (relative stereo) [Example 7-12, (−)-1-(3-cyanophenyl)-3-[(3S*,4R*)-4-(2,6-difluoro-4-methoxyphenyl)-2-oxopyrrolidin-3-yl]urea] | 3.9
COc1cnc([C@@H]2CNC(=O)[C@H]2NC(=O)Nc2ccc(Cl)s2)c(F)c1 (relative stereo) [Example 8-2, (−)-1-(5-chlorothiophen-2-yl)-3-[(3S*,4R*)-4-(3-fluoro-5-methoxypyridin-2-yl)-2-oxopyrrolidin-3-yl]urea] | 1.6
COc1cc(F)c([C@@H]2CN(CC(=O)O)C(=O)[C@H]2NC(=O)Nc2ccc(F)cc2)c(F)c1 (relative stereo) [Example 16-2, (−)-2-{(3S*,4R*)-4-(2,6-difluoro-4-methoxyphenyl)-3-[3-(4-fluorophenyl)ureido]-2-oxopyrrolidin-1-yl}acetic acid] | 0.49
O=C(O)CN1C[C@@H](c2cc3c(cc2F)OCC3)[C@H](NC(=O)Nc2ccc(F)cc2)C1=O (relative stereo) [Example 16-3, (−)-2-{(3S*,4R*)-4-(6-fluoro-2,3-dihydrobenzofuran-5-yl)-3-[3-(4-fluorophenyl)ureido]-2-oxopyrrolidin-1-yl}acetic acid] | 0.75
COc1cc(F)c([C@@H]2CN(C)C(=O)[C@H]2NC(=O)Nc2ccc(C#N)cc2)c(F)c1 (relative stereo) [Example 24-3] | 1.1
COc1cc(F)c([C@@H]2CN(C)C(=O)[C@H]2NC(=O)Nc2ccc(Cl)nc2)c(F)c1 (relative stereo) [Example 24-4, (−)-1-(6-chloropyridin-3-yl)-3-[(3S*,4R*)-4-(2,6-difluoro-4-methoxyphenyl)-1-methyl-2-oxopyrrolidin-3-yl]urea] | 0.81
COc1cc(F)c([C@@H]2CN(C)C(=O)[C@H]2NC(=O)Nc2cc3ccccc3s2)c(F)c1 (relative stereo) [Example 24-5, (−)-1-(benzo[b]thiophen-2-yl)-3-[(3S*,4R*)-4-(2,6-difluoro-4-methoxyphenyl)-1-methyl-2-oxopyrrolidin-3-yl]urea] | 1.6
COc1cc(F)c([C@@H]2CN(CCO)C(=O)[C@H]2NC(=O)Nc2ccc(C)cc2)c(F)c1 (relative stereo) [Example 24-7, (−)-1-[(3S*,4R*)-4-(2,6-difluoro-4-methoxyphenyl)-1-(2-hydroxyethyl)-2-oxopyrrolidin-3-yl]-3-(p-tolyl)urea] | 0.69

Now those with a lower EC50, led by results:

EC50 [nM] | SMILES
0.16 | COc1cc(F)c([C@@H]2CNC(=O)[C@H]2NC(=O)Nc2ccc(F)c(F)c2)c(F)c1 (relative stereo) [Example 7-9, (−)-1-[(3S*,4R*)-4-(2,6-difluoro-4-methoxyphenyl)-2-oxopyrrolidin-3-yl]-3-(3,4-difluorophenyl)urea]
0.29 | COc1cc(F)c([C@@H]2CNC(=O)[C@H]2NC(=O)Nc2ccc(Cl)s2)c(F)c1 (relative stereo) [Example 8-1, (−)-1-(5-Chlorothiophen-2-yl)-3-[(3S*,4R*)-4-(2,6-difluoro-4-methoxyphenyl)-2-oxopyrrolidin-3-yl]urea]
0.05 | COc1ccc([C@@H]2CN(C(C)(C)CO)C(=O)[C@H]2NC(=O)Nc2ccc(F)cc2)cc1 (relative stereo) [Example 12-4, (−)-1-(4-fluorophenyl)-3-[(3S*,4R*)-1-(1-hydroxy-2-methylpropan-2-yl)-4-(4-methoxyphenyl)-2-oxopyrrolidin-3-yl]urea]
0.11 | CNC(=O)CN1C[C@@H](c2ccc(OC)cc2)[C@H](NC(=O)Nc2ccc(F)cc2)C1=O (relative stereo) [Example 17-1, (−)-2-{(3S*,4R*)-3-[3-(4-Fluorophenyl)ureido]-4-(4-methoxyphenyl)-2-oxopyrrolidin-1-yl}-N-methylacetamide]
0.07 | CNC(=O)CN1C[C@@H](c2c(F)cc(OC)cc2F)[C@H](NC(=O)Nc2ccc(F)cc2)C1=O (relative stereo) [Example 17-2, (−)-2-{(3S*,4R*)-4-(2,6-difluoro-4-methoxyphenyl)-3-[3-(4-fluorophenyl)ureido]-2-oxopyrrolidin-1-yl}-N-methylacetamide]
0.29 | NC(=O)CN1C[C@@H](c2cc3c(cc2F)OCC3)[C@H](NC(=O)Nc2ccc(F)cc2)C1=O (relative stereo) [Example 17-3, (−)-2-{(3S*,4R*)-4-(6-fluoro-2,3-dihydrobenzofuran-5-yl)-3-[3-(4-fluorophenyl)ureido]-2-oxopyrrolidin-1-yl}acetamide]
0.38 | CC(C)(C(=O)O)N1C[C@@H](c2cc3c(cc2F)OCC3)[C@H](NC(=O)Nc2ccc(F)cc2)C1=O (relative stereo) [Example 22-2, (−)-2-{(3S*,4R*)-4-(6-Fluoro-2,3-dihydrobenzofuran-5-yl)-3-[3-(4-fluorophenyl)ureido]-2-oxopyrrolidin-1-yl}-2-methylpropanoic acid]
0.09 | CNC(=O)C(C)(C)N1C[C@@H](c2ccc(OC)cc2)[C@H](NC(=O)Nc2ccc(F)cc2)C1=O (relative stereo) [Example 23-1, (−)-2-{(3S*,4R*)-3-[3-(4-Fluorophenyl)ureido]-4-(4-methoxyphenyl)-2-oxopyrrolidin-1-yl}-N,2-dimethylpropionamide]
0.09 | COc1cc(F)c([C@@H]2CN(C)C(=O)[C@H]2NC(=O)Nc2ccc(F)cc2)c(F)c1 (relative stereo) [Example 24-1, (−)-1-[(3S*,4R*)-4-(2,6-Difluoro-4-methoxyphenyl)-1-methyl-2-oxopyrrolidin-3-yl]-3-(4-fluorophenyl)urea]
0.4 | COc1cc(F)c([C@@H]2CN(CCO)C(=O)[C@H]2NC(=O)Nc2ccccc2)c(F)c1 (relative stereo) [Example 24-6, (−)-1-[(3S*,4R*)-4-(2,6-difluoro-4-methoxyphenyl)-1-(2-hydroxyethyl)-2-oxopyrrolidin-3-yl]-3-phenylurea]
0.39 | COc1cc(F)c([C@@H]2CN(CCO)C(=O)[C@H]2NC(=O)Nc2ccc(C#N)cc2)c(F)c1 (relative stereo) [Example 24-8, (−)-1-(4-cyanophenyl)-3-[(3S*,4R*)-4-(2,6-difluoro-4-methoxyphenyl)-1-(2-hydroxyethyl)-2-oxopyrrolidin-3-yl]urea]
